From patent US20180362993A1, “ELICITOR-DERIVED PEPTIDES AND USE THEREOF” (Plant Health Care, Inc., priority 2017, published 2018)
Marks after values point to notes of the source that are not given here.

Experiments:
[1] = system: soy; assay: Drought resistance in seed-treated soy; type: in vivo; details: for % Change Dry Weight / % Change Fresh Weight: vs mock; for Result in the seed treated drought study for soy, in words: soy seed treatment
Protocol: The effectiveness of peptide treatment in reducing drought stress was assessed in soy using a seed treatment strategy. This strategy largely mirrors examples 3 and 4.
Seeds were first sieved using mesh screens to a uniform size (14-17 mesh). The seeds were then coated with a mixture of peptide and Unicoat™ seed coat polymer in a Hege 11 Liquid Seed Treater (Wintersteiger) according to manufacturer recommendations. […]
(§1) 3.5 inch pots were filled (approximately 0.2 L per pot) with Sunshine #1 mix (SunGro Horticulture), fertilized with 14-14-14 N,P,K Osmocote (Everris), and mixed for 20 minutes using a soil mixer M-5. Seeds were planted at a depth of 0.5 inch for germination. The pots were immediately irrigated by submergence then drained after about an hour. For each treatment group, 24 replicate seeds were planted. Plants were grown in a greenhouse under 16 hour light days at ˜75° F. and 8 hour dark nights at ˜65° F. Prior to drought conditions, the plants were well-watered.
(§2) Seven days after germination the heights of the plants were measured. This was determined as the distance between the soil surface and the shoot apical meristems (buds). The plants were randomized using a complete block design and subjected to a cyclic drought stress. Drought stress was imposed by withholding water for 3-4 days until the majority of plants were under medium to severe water stress. The severity of the stress was determined by the weight of the pot and visual determination of loss of turgor in the leaves (drooping). Once drought stress was attained, the pots were watered to full saturation. Full Saturation (100% pot capacity) is defined as the weight of the pot filled with water-saturated soil minus the weight of the filled pot prior to adding water. Drought stress was imposed for a total of 18 days.
At the end of the experiment (18 days after initiation of drought stress), the plant above the soil surface was then harvested for fresh and dry weights. Individual plants were cut near the soil surface and weighed immediately (fresh weight). The plants were then placed into labeled brown paper bags and dried in a 70° C. oven for 72 hours. A dry weight was then obtained. The following calculation was performed on the collected data: Fresh weight at harvest, and dry weight at harvest for the peptide-treated plants were expressed as a % change relative to the ‘mock’ treated plants.

[2] = system: corn; assay: Drought resistance in seed-coated corn; type: in vivo; details: for % Change Dry Weight / % Change Fresh Weight: vs mock
Protocol: The effectiveness of peptide treatment in reducing the effects of drought stress was assessed in corn using a seed treatment strategy. This strategy largely mirrors example 2, except that the seeds were coated with a peptide formulation rather than a foliar spray application.
Seeds were first sieved using mesh screens to a uniform size (21-23/64 inches). The seeds were then coated with a mixture of peptide, Unicoat™ seed coat polymer, and a minimal volume of water in a Hege 11 Liquid Seed Treater (Wintersteiger) according to manufacturer recommendations. Seeds were coated with one of the following: (i) 0.12 μg peptide/seed, (ii) […], or (iii) a ‘mock’ treatment that included no peptide. The amount of peptide per seed assumes complete transfer of the peptide to seed surfaces in the seed coating chamber. Losses during coating were not considered.
as §1
as §2, with “Three” for “Seven”, “planting,” for “germination”, “the” for “the heights of the plants were measured. This was determined as the distance between the soil surface and the shoot apical meristems (buds). The”, “2-3” for “3-4”, “leaf curling.” for “loss of turgor in the leaves (drooping).”
At the end of the experiment (18 days after initiation of drought stress), the plant was then harvested for fresh and dry weights. Individual plants were cut near the soil surface and weighed immediately (fresh weight). The plants were then placed into labeled brown paper bags and dried in a 70° C. oven for 72 hours. A dry weight was then obtained.
The following calculation was performed on the collected data: Fresh weight at harvest and dry weight at harvest for the plants grown from peptide-treated seeds were expressed as a % change relative to the ‘mock’ treated plants.

[3] = corn seed treatment 0.12 μg/seed
[4] = corn seed treatment 1.05 μg/seed

| Substance | % Change Dry Weight ([1]; soy seed treatment 0.1 μg/seed) | % Change Fresh Weight ([1]; soy seed treatment 0.1 μg/seed) | % Change Dry Weight [2, 3] | % Change Fresh Weight [2, 3] | % Change Dry Weight [2, 4] | % Change Fresh Weight [2, 4] | other results |
| --- | --- | --- | --- | --- | --- | --- | --- |
| AGQTSGLSPLEQLLKIFADITQSLFG (P13-23 peptide) [Peptide P13-23] | 6.43% | 5.08% | 0.94% | 4.89** % | 2.16% | 5.54** % | Drought tolerance activity in corn, result in words ([2]; corn seed treatment): affords activity |
| AGQTSGMSPLEQLMKIFADITQSLFGDQDG (P13-40 peptide) [Peptide P13-40] | 10.27** % | 12.53** % | – | – | 0.76% | 5.86* % | Result in the seed treated drought study for soy, in words [1]: significant results |
| AGQTSGMSPMEELMKIFADITQSLFGDQDG (P13-45 peptide) [Peptide P13-45] | – | – | 6.05* % | 8.54** % | – | – | % Change Dry Weight ([1]; soy seed treatment 0.9 μg/seed): 3.17%; % Change Fresh Weight ([1]; soy seed treatment 0.9 μg/seed): 3.6% |
| AGQTSGMSPMEQLLKIFADITQSLFGDQDG (P13-39 peptide) [Peptide P13-39] | 3.26% | 3.22% | – | – | 3.10% | 5.09** % | – |
| AGQTSGMSPMEQLMEIFADITQSLFGDQDGK (P13-22 peptide) [Peptide P13-22] | 4.36% | 4.91% | – | – | 1.66% | 3.41% | – |
| AGQTSGMSPMEQLMEIFADITQSLFGDQDGR (P13-20 peptide) [Peptide P13-20] | −5.02% | −5.86** % | – | – | 3.23% | 6.87** % | Drought tolerance activity in corn, result in words ([2]; corn seed treatment): affords activity |
| AGQTSGMSPMEQLMEIFADITQSLFGDQDR (P13-56 peptide) [Peptide P13-56] | – | – | 0.44% | 1.91% | – | – | – |
| AGQTSGMSPMEQLMEIFADITQSLFGDQR (P13-57 peptide) [Peptide P13-57] | – | – | – | – | −0.68% | 1.90% | – |
| AGQTSGMSPMEQLMEIFADITQSLFGDR (P13-58 peptide) [Peptide P13-58] | – | – | 2.83% | −4.07% | – | – | – |
| AGQTSGMSPMEQLMKIEADITQSLFGDQDG (P13-52 peptide) [Peptide P13-52] | – | – | – | – | 4.49** % | −5.08* % | Result for dry weight, in words ([2]; corn seed treatment): positive |
| AGQTSGMSPMEQLMKIFADITESLFGDQDG (P13-43 peptide) [Peptide P13-43] | 2.37% | 1.96% | −0.75% | 6.2* % | 6.73** % | 5.04% | – |
| AGQTSGMSPMEQLMKIFADITQSLFGDEDG (P13-44 peptide) [Peptide P13-44] | 10.93** % | 10.54** % | 2.73% | 7.76** % | 3.44% | 9.15** % | Result in the seed treated drought study for soy, in words [1]: significant results |
| AGQTSGMSPMEQLMKIFADITQSLFGDQ (P13-17 peptide) [Peptide P13-17] | 9.48** % | 8.02* % | – | – | 1.09% | 1.51% | Result in the seed treated drought study for soy, in words [1]: significant results |
| AGQTSGMSPMEQLMKILADITQSLLGDQDG (P13-33 peptide) [Peptide P13-33] | – | – | – | – | 2.59% | −1.28% | Drought tolerance activity in corn, result in words ([2]; corn seed treatment): negative |
| AGQTSGMSPMEQLMKLFADLTQSLFGDQDG (P13-30 peptide) [Peptide P13-30] | – | – | 3.01% | 6.19* % | 2.73% | 8.68** % | Result in the seed treated drought study for soy, in words [1]: significant results; % Change Dry Weight ([1]; soy seed treatment 0.9 μg/seed): 6.17%; % Change Fresh Weight ([1]; soy seed treatment 0.9 μg/seed): 9.41* %; Drought tolerance activity in corn, result in words ([2]; corn seed treatment): positive |
| LEELEELLEIFEEIEEELF (P13-35 peptide) [Peptide P13-35] | 2.56% | 1.55% | 5.68** % | 2.45% | – | – | Drought tolerance activity in corn, result in words ([2]; corn seed treatment): preservation of activity |
| MEEMEQLMKIFEEIEQELFEEEE (P13-37 peptide) [Peptide P13-37] | – | – | – | – | 5.53** % | 7.67** % | % Change Dry Weight ([1]; soy seed treatment 0.9 μg/seed): 0.48%; % Change Fresh Weight ([1]; soy seed treatment 0.9 μg/seed): 0.58%; Drought tolerance activity in corn, result in words ([2]; corn seed treatment): preservation of activity |
| P13-47: P13 peptide variant tested in corn seed treatment, SEQ ID NO: 69; sequence not printed in the text (AGQTSGESPMEQLMKIFADITQSLFGDQDG; P13-47 peptide) [Peptide P13-47] | – | – | – | – | −1.34% | −3.42% | – |
| P13-48: P13 peptide variant tested in corn seed treatment, SEQ ID NO: 70; sequence not printed in the text (AGQTSGMSPEEQLMKIFADITQSLFGDQDG; P13-48 peptide) [Peptide P13-48] | – | – | – | – | −1.83% | −1.65% | – |
| P13-49: P13 peptide variant tested in corn seed treatment, SEQ ID NO: 71; sequence not printed in the text (AGQTSGMSPMEQEMKIFADITQSLFGDQDG; P13-49 peptide) [Peptide P13-49] | – | – | 0.79% | −4.24% | – | – | – |
| P13-50: P13 peptide variant tested in corn seed treatment, SEQ ID NO: 72; sequence not printed in the text (AGQTSGMSPMEQLEKIFADITQSLFGDQDG; P13-50 peptide) [Peptide P13-50] | – | – | 0.49% | −3.95% | – | – | – |
| P13-51: P13 peptide variant tested in corn seed treatment, SEQ ID NO: 73; sequence not printed in the text (AGQTSGMSPMEQLMKEFADITQSLFGDQDG; P13-51 peptide) [Peptide P13-51] | – | – | – | – | 0.64% | −4.70% | – |
| P13-53: P13 peptide variant tested in corn seed treatment, SEQ ID NO: 75; sequence not printed in the text (AGQTSGMSPMEQLMKIFADETQSLFGDQDG; P13-53 peptide) [Peptide P13-53] | – | – | 0.48% | −2.19% | – | – | – |
| P13-54: P13 peptide variant tested in corn seed treatment, SEQ ID NO: 76; sequence not printed in the text (AGQTSGMSPMEQLMKIFADITQSEFGDQDG; P13-54 peptide) [Peptide P13-54] | – | – | −1.38% | −4.51* % | – | – | – |
| P13-55: P13 peptide variant tested in corn seed treatment, SEQ ID NO: 77; sequence not printed in the text (AGQTSGMSPMEQLMKIFADITQSLEGDQDG; P13-55 peptide) [Peptide P13-55] | – | – | 0.81% | −3.84% | – | – | – |
| SQTSGMSPMEQLMEIFADITQSLF (P13-25 peptide) [Peptide P13-25] | – | – | – | – | 3.01% | 2.63% | – |
